Source: US6867320B2, “Substituted phenylalkanoic acid derivatives and use thereof” (Asahi Kasei Pharma Corporation, priority 2002, dated 2005)

Legend:
[1] = system: PGE2 production from IL-1β-stimulated MG-63 cells; experiment: Suppressing action on PGE2 production from IL-1β-stimulated MG-63 cells; type: cell-based; details: Homo sapiens, IL-1β 1 ng/ml, 18 hours, read-out: PGE2 production suppression ratio
In short: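 PGE2 in 18 h supernatants was quantified by EIA and expressed as % suppression relative to IL-1β-only and unstimulated controls. Cells were the MG-63 osteosarcoma line, plated at 2×10^4/well, given compound in 0.5% FBS EMEM, then 1 ng/ml IL-1β final.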

[2] = system: zymosan-stimulated footpad edema; experiment: Mouse zymosan-stimulated footpad edema reaction; type: in vivo; details: ICR female mice, oral 0.1 to 500 mg/kg, compared with positive control group
In short: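 Female ICR mice (6–7 weeks, n=8) dosed orally at 0.1 to 500 mg/kg in 0.5% methylcellulose; 1 h later zymosan (1 mg/ml, 0.02 ml) injected s.c. into right hind footpad. Edema volume at 1 and 2 h gave AUC to 2 h; suppression (%) calculated against positive control AUC.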

[3] = system: IgE-stimulated footpad edema; experiment: Mouse IgE-stimulated footpad edema reaction; type: in vivo; details: C57BL/6 male mice, oral 0.1 to 500 mg/kg, compared with positive control group
Procedure: 4. Suppressing Effect on Mouse IgE-stimulated Footpad Edema Reaction
Suppression on footpad edema caused by IgE antibody as an allergic stimulant was studied by the following method. Groups of C57BL/6 male mice (9- to 11-week old) each consisting of five mice were used for the test. Anti-DNP-BSA IgE serum was subcutaneously administered in a volume of 20 μl to right hind leg footpad of each mouse one day before the test. A test compound was suspended or dissolved in purified water containing 0.5% methylcellulose and orally administered to the test animals at 0.1 to 500 mg/0.2 ml/kg. To the control group, purified water containing 0.5% methylcellulose was administered in a similar manner, which was not added with the test compound. Two hours after the administration of the test compound, 0.2 ml of a solution of DNP-BSA dissolved in physiological saline (Otsuka Pharmaceutical) at 2.5 μg/ml was intravenously administered. The thickness of right hind leg footpad was measured by using a digital thickness gauge (MITSUTOYO) 10, 15, 20, and 30 minutes after the administration of DNP-BSA. A difference of the thickness of footpad measured above and the thickness before the administration of the test compound measured beforehand was regarded as a thickness of edema.
For the thickness of the edema at 10, 15, 20 and 30 minutes after the DNP-BSA administration, a graph was prepared indicating time in abscissa and the edema thickness in ordinate, and edema thickness AUC […] was obtained by calculation according to the following equation. Edema thickness AUC (mm·minute)=1/2×10×A+5×(A+B)/2+5×(B+C)/2+10×(C+D)/2 • A: Edema thickness 10 minutes after DNP-BSA administration • B: Edema thickness 15 minutes after DNP-BSA administration • C: Edema thickness 20 minutes after DNP-BSA administration • D: Edema thickness 30 minutes after DNP-BSA administration
A suppressing ratio on edema of a test compound was obtained by calculation in accordance with the following equation. Edema suppression ratio (%)=[1−B/A]×100 • A: Edema thickness AUC of positive control • B: Edema thickness AUC of test compound administered group (2) Measurement Results

[4] = system: PGD2 production from IgE-stimulated RBL-2H3 cells; experiment: Suppressing action on PGD2 production from IgE-stimulated RBL-2H3 cells; type: cell-based; details: Rattus norvegicus, 10 min, IgE/DNP-BSA stimulated RBL-2H3 cells, read-out: PGD2 production suppression ratio
Description: (§1) 2. Suppressing Action on PGD2 and LTB4 Production from IgE-Stimulated RBL-2H3 Cells
(§2) Suppressing action on PGD2 and LTB4 production caused by IgE as an allergic stimulant was investigated by the following method. Cells of RBL-2H3, which is a rat mastocytoma cell line (purchased from ATCC), were suspended in DEMEM medium (GIBCO) containing 10% fetal bovine serum (BioFluid), inoculated to each well of 48-well culture plate at a density of 2×10^4 cells/well and cultured overnight. Then, IgE antiserum directed to dinitrophenylated BSA (henceforth DNP-BSA) was further added to each well, and the cells were cultured for 30 minutes. Then, the medium was changed to DEMEM medium containing 0.5% fetal bovine serum, a test compound was added with each well, and DNP-BSA was further added at a final concentration of 100 ng/ml as a stimulant. Ten minutes after the stimulant was added, the culture supernatant was collected, and the PGD2 concentration and LTB4 concentration in the culture supernatant were measured by using EIA kit (CAYMAN). By using a well which was not added with the stimulant as a negative control and a well which was added only with the stimulant as a positive control, suppressing ratios on mediator production were calculated from the production amounts of the mediators in the well added with the test compound using the following equation. PGD2 or LTB4 production suppression ratio=[1−(C−B)/(A−B)]×100 • A: PGD2 or LTB4 production amount of positive control • B: PGD2 or LTB4 production amount of negative control • C: PGD2 or LTB4 production amount in well added with test compound
(§3) Further, as control compounds for comparison, reference compound (1), 3-(2-cyclohexylmethyloxy-1,1′-biphenyl-5-yl)propionic acid described in WO99/19291, reference compounds (2) and (3), [2-(5,6,7,8-tetrahydro-5,5,8,8-tetramethyl-2-naphthalenyl)methyloxy-1,1′-biphenyl-5-yl]carboxylic acid [reference compound (2)] and 3-[3′-carboxy-2-(5,6,7,8-tetrahydro-5,5,8,8-tetramethyl-2naphthalenyl)methyloxy-1,1′-biphenyl-6-yl]propionic acid [reference compound (3)] described in U.S. Pat. No. 5,391,817 and Japanese Patent Unexamined Publication (Kokai) No. 7-22399, respectively, were used, and activities thereof were similarly measured.

[5] = system: LTB4 production from IgE-stimulated RBL-2H3 cells; experiment: Suppressing action on LTB4 production from IgE-stimulated RBL-2H3 cells; type: cell-based; details: Rattus norvegicus, 10 min, IgE/DNP-BSA stimulated RBL-2H3 cells, read-out: LTB4 production suppression ratio
Description: as §1, §2, §3

| Compound | inhibition at 0.4 µM [1] [%] | suppression of footpad edema caused by zymosan [2] | suppression of footpad edema caused by IgE stimulation [3] | inhibition at 0.4 µM [4] [%] | inhibition at 0.4 µM [5] [%] |
| --- | --- | --- | --- | --- | --- |
| O=C(O)CCc1ccc(OCc2cccc(F)c2)c(-c2ccc3ccccc3c2)c1 [Compound 033, 3-[4-(3-fluorophenylmethyloxy)-3-(naphthalen-2-yl)phenyl]propionic acid] | ≥ 50 | suppressed footpad edema | suppressed the footpad edema |  |  |
| O=C(O)CCc1ccc(OCCc2ccccc2)c(-c2ccc3ccccc3c2)c1 [Compound 051, 3-[3-(naphthalen-2-yl)-4-(2-phenylethyloxy)phenyl]propionic acid] | ≥ 50 |  | suppressed the footpad edema |  |  |
| O=C(O)CCc1ccc(OCCc2cccc(F)c2)c(-c2ccc3ccccc3c2)c1 [Compound 055, 3-{4-[2-(3-fluorophenyl)ethyloxy]-3-(naphthalen-2-yl)phenyl}propionic acid] | ≥ 50 | suppressed footpad edema | suppressed the footpad edema |  |  |
| O=C(O)CCc1ccc(OCCc2ccc(F)cc2)c(-c2ccc3ccccc3c2)c1 [Compound 057, 3-{4-[2-(4-fluorophenyl)ethyloxy]-3-(naphthalen-2-yl)phenyl}propionic acid] | ≥ 50 | suppressed footpad edema | suppressed the footpad edema |  |  |
| O=C(O)CCc1ccc(OCC2CCCCC2)c(-c2cccc3[nH]ccc23)c1 [Compound 116, 3-[4-cyclohexylmethyloxy-3-(1H-indol-4-yl)phenyl]propionic acid] | ≥ 50 | suppressed footpad edema | suppressed the footpad edema |  |  |
| Cn1ccc2c(-c3cc(CCC(=O)O)ccc3OC3CCCCC3)cccc21 [Compound 126, 3-[4-cyclohexyloxy-3-(1-methyl-1H-indol-4-yl)phenyl]propionic acid] | ≥ 50 | suppressed footpad edema | suppressed the footpad edema |  |  |
| O=C(O)CCc1ccc(OCc2ccccc2-c2ccccc2)c(-c2ccc3[nH]ccc3c2)c1 [Compound 140, 3-{4-[(biphenyl-2-yl)methyloxy]-3-(1H-indol-5-yl)phenyl}propionic acid] | ≥ 50 | suppressed footpad edema | suppressed the footpad edema |  |  |
| O=C(O)CCc1ccc(OCc2ccc(F)cc2F)c(-c2ccc3[nH]ccc3c2)c1 [Compound 156, 3-[4-(2,4-difluorophenylmethyloxy)-3-(1H-indol-5-yl)phenyl]propionic acid] | ≥ 50 |  | suppressed the footpad edema |  |  |
| O=C(O)CCc1ccc(OCc2ccc(F)c(F)c2)c(-c2ccc3[nH]ccc3c2)c1 [Compound 158, 3-[4-(3,4-difluorophenylmethyloxy)-3-(1H-indol-5-yl)phenyl]propionic acid] | ≥ 50 |  | suppressed the footpad edema |  |  |
| O=C(O)CCc1ccc(OCc2ccc(Br)cc2F)c(-c2ccc3[nH]ccc3c2)c1 [Compound 168] |  | suppressed footpad edema | suppressed the footpad edema |  |  |
| CCC(CC)COc1ccc(CCC(=O)O)cc1-c1ccc2[nH]ccc2c1 [Compound 183, 3-[4-(2-ethylbutyloxy)-3-(1H-indol-5-yl)phenyl]propionic acid] | ≥ 50 | suppressed footpad edema | suppressed the footpad edema |  |  |
| O=C(O)CCc1ccc(OCc2ccc3ccccc3c2)c(-c2ccc3[nH]ccc3c2)c1 [Compound 192, 3-{3-(1H-indol-5-yl)-4-[(Naphthalen-2-yl)methyloxy]phenyl}propionic acid] | ≥ 50 |  | suppressed the footpad edema |  |  |
| O=C(O)CCc1ccc(OCCc2ccc(Cl)cc2)c(-c2ccc3[nH]ccc3c2)c1 [Compound 213, 3-{4-[2-(4-chlorophenyl)ethyloxy]-3-(1H-indol-5-yl)phenyl}propionic acid] | ≥ 50 |  | suppressed the footpad edema |  |  |
| CCn1ccc2cc(-c3cc(CCC(=O)O)ccc3OC3CCCC3)ccc21 [Compound 246, 3-[4-cyclopentyloxy-3-(1-ethyl-1H-indol-5-yl)phenyl]propionic acid] | ≥ 50 | suppressed footpad edema |  | ≥ 50 | ≥ 50 |
| Nc1cc(CCC(=O)O)cc(-c2ccc3[nH]ccc3c2)c1OCC1CCCC1 [Compound 266, 3-[3-amino-4-cyclopentylmethyloxy-5-(1H-indol-5-yl)phenyl]propionic acid] | ≥ 50 |  | suppressed the footpad edema |  |  |
| Nc1nc2ccc(-c3cc(CCC(=O)O)ccc3OC3CCCCC3)cc2s1 [Compound 295, 3-[3-(2-aminobenzothiazol-6-yl)-4-cyclohexyloxyphenyl]propionic acid] | ≥ 50 | suppressed footpad edema |  | ≥ 50 | ≥ 50 |
| O=C(O)CCc1ccc(OCc2ccccc2)c(-c2ccc3[nH]ccc3c2)c1 [Compound 325, 3-[4-benzyloxy-3-(1H-indol-5-yl)phenyl]propionic acid] | ≥ 50 |  | suppressed the footpad edema |  |  |
